Measurements from US10676458B2, “Antidiabetic bicyclic compounds” (Merck Sharp & Dohme Corp., priority 2016, dated 2020).

Each molecule was assayed against human GPR40 (Homo sapiens (Human), UniProt O14842) (assay: Inositol Phosphate Turnover (IP1) Assay). Conditions: HEK cells stably expressing human GPR40; 60 min incubation; CisBio IP-One kit.
Type: cell-based
Experimental: Human GPR40 stable cell-lines were generated in HEK cells. The expression plasmids were transfected using lipofectamine (Life Technologies) following manufacturer's instructions. Stable cell-lines were generated following drug selection and single cell cloning.
The assay was performed in 384-well format. HEK cells stably expressing human GPR40 were plated at 7500 cells per well in growth medium (DMEM/10% fetal calf serum). Cell plates were then incubated 16 hours at 37 degrees in a 5% CO2 incubator. Measurement of Inositol Phosphate Turnover (IP1) was performed using the CisBio IP-One kit (Part number 62IPAPEB). After the 16 hour incubation, the growth media was removed by centrifugation using the BlueWasher (AusWasher GUI Ver. v1.0.1.8) Protocol #21-“Light Dry” and 10 ul of stimulation buffer (prepared as described in the kit) was added to each well. In a separate plate, compounds were diluted in DMSO (200-fold over the final concentration in the assay well) and 50 nl was acoustically transferred to the appropriate well in the assay cell plate. The plates were then incubated for 60 minutes at 37 degrees in a 5% CO2 incubator. 10 ul of detection buffer (also prepared as described in the IP-One kit) was added to each well and the plates were incubated at room temperature for 60 minutes in the dark. The plates were then read in a Perkin Elmer EnVision or equivalent reader able to measure FRET. Fluorescent ratio of emission at 665 and 620 nm was then converted to IP1 concentration by back calculating from an IP1 standard curve prepared at the time of the assay. Data was normalized to % activity using a reference compound and EC50s determined using a standard 4-paramter fit.

Chain of human GPR40 (O14842 whole entry): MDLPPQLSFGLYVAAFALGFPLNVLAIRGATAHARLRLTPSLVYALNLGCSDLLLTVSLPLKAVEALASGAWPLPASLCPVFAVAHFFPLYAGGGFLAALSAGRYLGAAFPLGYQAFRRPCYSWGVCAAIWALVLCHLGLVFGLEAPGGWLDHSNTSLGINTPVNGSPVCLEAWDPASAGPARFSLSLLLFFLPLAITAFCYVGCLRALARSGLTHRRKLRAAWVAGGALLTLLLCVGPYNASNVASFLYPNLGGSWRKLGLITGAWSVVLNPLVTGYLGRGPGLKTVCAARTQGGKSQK

SMILES	EC50 [nM]
COc1ccc(F)c(-c2ccc(C3CCc4ccc([C@H](C5CC5)[C@H](C)C(=O)O)cc4N3C)cc2)c1 (single isomer, unassigned) [Example 15, (2S,3R)-3-cyclopropyl-3-((S or R)-2-(2′-fluoro-5′-methoxy-[1,1′-biphenyl]-4-yl)-1-methyl-1,2,3,4-tetrahydroquinolin-7-yl)-2-methylpropanoic acid]	12
C[C@H](C(=O)O)[C@H](c1ccc2c(c1)NC(C1CCN(Cc3cc(C(F)(F)F)ccc3C(F)(F)F)CC1)CO2)C1CC1 (single isomer, unassigned) [Example 2, Sodium (2S,3S)-3-((R or S)-3-(1-(2,5-Bis(trifluoromethyl)-benzyl)piperidin-4-yl)-3,4-dihydro-2H-benzo[b][1,4]oxazin-6-yl)-3-cyclopropyl-2-methyl propanoate]	388
C[C@H](C(=O)O)[C@H](c1ccc2c(c1)NC(C1CCN(Cc3cc(C(F)(F)F)ccc3C(F)(F)F)CC1)CC2)C1CC1 (single isomer, unassigned) [Example 7, Sodium (2S,3R)-3-((S or R)-2-(1-(2,5-bis(tri-fluoromethyl)-benzyl)-piperidin-4-yl)-1,2,3,4-tetrahydroquin-olin-7-yl)-3-cyclo-propyl-2-methyl propanoate]	99
C[C@H](C(=O)O)C(c1ccc2c(c1)N(C)C(C1CCN(Cc3cc(C(F)(F)F)ccc3C(F)(F)F)CC1)CO2)C1CC1 (single isomer, unassigned) [Example 4, Sodium (2S,3S)-3-((R or S)-3-(1-(2,5-bis(trifluoromethyl)benzyl)piperidin-4-yl)-4-methyl-3,4-di-hydro-2H-benzo[b][1,4]oxazin-6-yl)-3-cyclopropyl-2-methylpropanoate]	4700
COc1ccc(F)c(-c2ccc(C3CCc4ccc([C@H](C5CC5)[C@H](C)C(=O)O)cc4N3)cc2)c1 (single isomer, unassigned) [Example 11, Sodium (2S,3R)-3-cyclopropyl-3-((R or S)-2-(2′-fluoro-5′-methoxy-[1,1′-biphenyl]-4-yl)-1,2,3,4-tetrahydroquinolin-7-yl)-2-methylpropanoate]	0.79
C[C@H](C(=O)O)[C@H](c1ccc2c(c1)N(C)C(C1CCN(Cc3cc(C(F)(F)F)ccc3C(F)(F)F)CC1)CC2)C1CC1 (single isomer, unassigned) [Example 9, (2S,3R)-3-((S or R)-2-(1-(2,5-bis(trifluoromethyl)-benzyl)piperidin-4-yl)-1-methyl-1,2,3,4-tetrahydroquinolin-7-yl)-3-cyclopropyl-2-methyl propanoic acid]	289
COc1ccc(F)c(-c2ccc(C3CCc4ccc([C@H](C5CC5)[C@H](C)C(=O)O)cc4N3C)cc2)c1 (single isomer, unassigned) [Example 14, (2S,3R)-3-cyclopropyl-3-((R or S)-2-(2′-fluoro-5′-methoxy-[1,1′-biphenyl]-4-yl)-1-methyl-1,2,3,4-tetrahydroquinolin-7-yl)-2-methylpropanoic acid]	1
COc1ccc(F)c(-c2ccc(C3COc4ccc([C@H](C5CC5)[C@H](C)C(=O)O)cc4N3C)cc2)c1 (single isomer, unassigned) [Example 21, Sodium (2S,3R)-3-cyclopropyl-3-((S or R)-3-(2′-fluoro-5′-methoxy-[1,1′-biphenyl]-4-yl)-4-methyl-3,4-dihydro-2H-benzo[b][1,4]oxazin-6-yl)-2-methyl propanoate]	12
COc1ccc(F)c(-c2ccc(C3COc4ccc([C@H](C5CC5)[C@H](C)C(=O)O)cc4N3)cc2)c1 (single isomer, unassigned) [Example 17, Sodium (2S,3R)-3-cyclopropyl-3-((R or S)-3-(2′-fluoro-5′-methoxy-[1,1′-biphenyl]-4-yl)-3,4-dihydro-2H-benzo[b][1,4]oxazin-6-yl)-2-methyl propanoate]	10
C[C@H](C(=O)O)[C@H](c1ccc2c(c1)NC(C1CCN(Cc3cc(C(F)(F)F)ccc3C(F)(F)F)CC1)CO2)C1CC1 (single isomer, unassigned) [Example 3, Sodium (2S,3R)-methyl 3-((S or R)-3-(1-(2,5-bis(trifluoro-methyl)-benzyl)-piperidin-4-yl)-3,4-dihydro-2H-benzo[b]-[1,4]oxazin-6-yl)-3-cyclopropyl-2-methylpropanoate]	642
COc1ccc(F)c(-c2ccc(C3COc4ccc([C@H](C5CC5)[C@H](C)C(=O)O)cc4N3C)cc2)c1 (single isomer, unassigned) [Example 20, Sodium (2S,3R)-3-cyclopropyl-3-((R or S)-3-(2′-fluoro-5′-methoxy-[1,1′-biphenyl]-4-yl)-4-methyl-3,4-dihydro-2H benzo-[b][1,4]oxazin-6-yl)-2-methyl propanoate]	0.8
C[C@H](C(=O)O)[C@H](c1ccc2c(c1)NC(C1CCN(Cc3cc(C(F)(F)F)ccc3C(F)(F)F)CC1)CC2)C1CC1 (single isomer, unassigned) [Example 6, Sodium (2S,3R)-3-((R or S)-2-(1-(2,5-bis(trifluoromethyl)benzyl)piperidin-4-yl)-1,2,3,4-tetrahydroquinolin-7-yl)-3-cyclopropyl-2-methylpropanoate]	35
C[C@H](C(=O)O)[C@H](c1ccc2c(c1)N(C)C(C1CCN(Cc3cc(C(F)(F)F)ccc3C(F)(F)F)CC1)CO2)C1CC1 (single isomer, unassigned) [Example 5, Sodium (2S,3S)-3-((S or R)-3-(1-(2,5-bis(trifluoro-methyl)-benzyl)piperidin-4-yl)-4-methyl-3,4-dihydro-2H-benzo[b]-[1,4]oxazin-6-yl)-3-cyclopropyl-2-methyl propanoate]	2100
COc1ccc(F)c(-c2ccc(C3CCc4ccc([C@H](C5CC5)[C@H](C)C(=O)O)cc4N3)cc2)c1 (single isomer, unassigned) [Example 12, (2S,3R)-3-cyclopropyl-3-((S or R)-2-(2′-fluoro-5′-methoxy-[1,1′-biphenyl]-4-yl)-1,2,3,4-tetrahydroquinolin-7-yl)-2-methylpropanoic acid]	0.2
C[C@H](C(=O)O)[C@H](c1ccc2c(c1)CN(C1CCN(Cc3cc(C(F)(F)F)ccc3C(F)(F)F)CC1)CC2)C1CC1 [Example 1, (2S,3R)-3-(2-(1-(2,5-bis(Trifluoromethyl)benzyl)piperidin-4-yl)-1,2,34-tetrahydroisoquinolin-7-yl)-3-cyclopropyl-2-methylpropanoic acid]	611
COc1ccc(F)c(-c2ccc(C3COc4ccc([C@H](C5CC5)[C@H](C)C(=O)O)cc4N3)cc2)c1 (single isomer, unassigned) [Example 18, Sodium (2S,3R)-3-cyclopropyl-3-((S or R)-3-(2′-fluoro-5′-methoxy-[1,1′-biphenyl]-4-yl)-3,4-dihydro-2H-benzo[b][1,4]oxazin-6-yl)-2-methyl propanoate]	0.8
C[C@H](C(=O)O)[C@H](c1ccc2c(c1)N(C)C(C1CCN(Cc3cc(C(F)(F)F)ccc3C(F)(F)F)CC1)CC2)C1CC1 (single isomer, unassigned) [Example 8, (2S,3R)-3-((R or S)-2-(1-(2,5-bis(trifluoromethyl)benzyl)piperidin-4-yl)-1-methyl-1,2,3,4-tetrahydroquinolin-7-yl)-3-cyclopropyl-2-methylpropanoic acid]	439
